In the NIST ThermoML archive (doi:10.1021/je030136n):

Test: xn = mol fraction of the nth substance listed
Settings: Liquid, Pulse-echo method

CCCCCCC [heptane] + CCCO
Settings | speed of sound [m/s]
293.1 K, 45590 kPa, x2 = 0.6027 | 1414.5
293.1 K, 91190 kPa, x2 = 0.1008 | 1599
293.1 K, 91190 kPa, x2 = 0.3008 | 1594.3
293.1 K, 111450 kPa, x2 = 0 | 1674.3
293.11 K, 45590 kPa, x2 = 0.1008 | 1412
293.11 K, 121580 kPa, x2 = 0.7986 | 1691.8
293.12 K, 100 kPa, x2 = 0.4992 | 1158.2
293.12 K, 30400 kPa, x2 = 0.7986 | 1355.6
293.12 K, 45590 kPa, x2 = 0.7986 | 1424
293.12 K, 75990 kPa, x2 = 0.7986 | 1543.1
293.13 K, 100 kPa, x2 = 0.6027 | 1164.9
293.13 K, 30400 kPa, x2 = 0.6027 | 1343.3
293.13 K, 45590 kPa, x2 = 0.4992 | 1412.6
293.13 K, 60790 kPa, x2 = 0.7986 | 1486.1
293.13 K, 75990 kPa, x2 = 0.1008 | 1541.8
293.13 K, 121580 kPa, x2 = 0.1008 | 1701.6
293.14 K, 100 kPa, x2 = 0.7016 | 1173.8
293.14 K, 100 kPa, x2 = 0.7986 | 1185.8
293.14 K, 60790 kPa, x2 = 0.6027 | 1478.7
293.14 K, 91190 kPa, x2 = 0.6027 | 1592.5
293.14 K, 101320 kPa, x2 = 0.1008 | 1634.7
293.14 K, 111450 kPa, x2 = 0.3008 | 1663.3
293.14 K, 111450 kPa, x2 = 0.7986 | 1661.2
293.15 K, 100 kPa, x2 = 0 | 1151.7
293.15 K, 75990 kPa, x2 = 0.6027 | 1537.8
293.15 K, 111450 kPa, x2 = 0.1008 | 1668.9
293.16 K, 30400 kPa, x2 = 0.7016 | 1348.5
293.16 K, 60790 kPa, x2 = 0.4992 | 1478
293.16 K, 75990 kPa, x2 = 0.4992 | 1537.8
293.16 K, 91190 kPa, x2 = 0.7986 | 1595.9
293.16 K, 101320 kPa, x2 = 0.3008 | 1629.5
293.16 K, 111450 kPa, x2 = 0.6027 | 1659.8
293.16 K, 121580 kPa, x2 = 0 | 1707.1
293.16 K, 121580 kPa, x2 = 0.7016 | 1691
293.17 K, 30400 kPa, x2 = 0.4992 | 1340.5
293.17 K, 45590 kPa, x2 = 0.7016 | 1418.3
293.17 K, 101320 kPa, x2 = 0.7986 | 1629.2
293.17 K, 121580 kPa, x2 = 0.3008 | 1695.5
293.18 K, 30400 kPa, x2 = 0 | 1341.5
293.18 K, 60790 kPa, x2 = 0.7016 | 1481.6
293.18 K, 101320 kPa, x2 = 0.6027 | 1626.9
293.18 K, 111450 kPa, x2 = 0.7016 | 1659.9
293.18 K, 121580 kPa, x2 = 0.6027 | 1691.2
293.19 K, 45590 kPa, x2 = 0 | 1416.6
293.19 K, 60790 kPa, x2 = 0.1008 | 1479.6
293.19 K, 60790 kPa, x2 = 0.3008 | 1476.8
293.19 K, 91190 kPa, x2 = 0.4992 | 1592.6
293.19 K, 101320 kPa, x2 = 0.7016 | 1627.5
293.2 K, 15200 kPa, x2 = 0 | 1256.3
293.2 K, 60790 kPa, x2 = 0 | 1484.5
293.2 K, 75990 kPa, x2 = 0 | 1546.5
293.2 K, 75990 kPa, x2 = 0.3008 | 1537.7
293.2 K, 75990 kPa, x2 = 0.7016 | 1539.8
293.2 K, 91190 kPa, x2 = 0 | 1603.7
293.2 K, 91190 kPa, x2 = 0.7016 | 1593.7
293.2 K, 101320 kPa, x2 = 0 | 1639.7
293.21 K, 100 kPa, x2 = 0.3008 | 1149.9
293.21 K, 30400 kPa, x2 = 0.3008 | 1336.5
293.21 K, 101320 kPa, x2 = 0.4992 | 1627.3
293.21 K, 111450 kPa, x2 = 0.4992 | 1660.5
293.22 K, 100 kPa, x2 = 0.1008 | 1147.3
293.22 K, 15200 kPa, x2 = 0.1008 | 1252
293.22 K, 30400 kPa, x2 = 0.1008 | 1337
293.22 K, 45590 kPa, x2 = 0.3008 | 1410.2
293.23 K, 121580 kPa, x2 = 0.4992 | 1692.2
298.06 K, 121580 kPa, x2 = 0.6027 | 1679
298.1 K, 101320 kPa, x2 = 0.3008 | 1616
298.11 K, 75990 kPa, x2 = 0 | 1531.6
298.13 K, 100 kPa, x2 = 0.4992 | 1137
298.13 K, 101320 kPa, x2 = 0.4992 | 1614.4
298.13 K, 111450 kPa, x2 = 0 | 1660.5
298.13 K, 111450 kPa, x2 = 0.6027 | 1647.1
298.13 K, 111450 kPa, x2 = 0.7986 | 1649.2
298.14 K, 91190 kPa, x2 = 0.4992 | 1579.3
298.14 K, 111450 kPa, x2 = 0.3008 | 1650.1
298.14 K, 121580 kPa, x2 = 0 | 1692.4
298.14 K, 121580 kPa, x2 = 0.1008 | 1688.8
298.14 K, 121580 kPa, x2 = 0.4992 | 1679.9
298.15 K, 100 kPa, x2 = 0.1008 | 1125.7
298.15 K, 30400 kPa, x2 = 0.4992 | 1323.2
298.15 K, 30400 kPa, x2 = 0.7986 | 1339.6
298.15 K, 60790 kPa, x2 = 0.4992 | 1462.7
298.15 K, 75990 kPa, x2 = 0.4992 | 1523.3
298.15 K, 91190 kPa, x2 = 0 | 1589.4
298.15 K, 101320 kPa, x2 = 0.6027 | 1613.9
298.15 K, 111450 kPa, x2 = 0.4992 | 1647.9
298.15 K, 121580 kPa, x2 = 0.3008 | 1682.7
298.16 K, 100 kPa, x2 = 0 | 1129.9
298.16 K, 45590 kPa, x2 = 0.1008 | 1395.7
298.16 K, 45590 kPa, x2 = 0.4992 | 1396.7
298.16 K, 45590 kPa, x2 = 0.7986 | 1408.9
298.16 K, 101320 kPa, x2 = 0 | 1625.7
298.16 K, 101320 kPa, x2 = 0.1008 | 1620.6
298.16 K, 111450 kPa, x2 = 0 | 1660.4
298.17 K, 100 kPa, x2 = 0.7986 | 1166.7
298.17 K, 15200 kPa, x2 = 0.1008 | 1232.9
298.17 K, 30400 kPa, x2 = 0.1008 | 1319.5
